From the supplement of paper PMC11208160

Test: recombinant barcode read abundance after kanamycin selection (control-corrected) (log10(CPM+1)); higher = more efficient recombination; sequences stand for … in AGTGCAGAGAAAATCGGCCAGTTTTCTCTGCCTGCAGTCCGCATGCCGT…AGATTTATGCAGCGGACTGCCTTTCTCCCAAAGTGATAAACCGGACAGTATCATGGACCGGTTTTCCCGGTAATCCGTATTTGCAAGGTTGGTTTCACT; site = the 11-nt target
Summary of the method: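 A promoter, a target, a barcode and the first 104 bridge RNA bases under J23119 made up each oligo. Oligos were Gibson-cloned into a vector bearing the other 73 bp and a T7-inducible recombinase, then co-electroporated into E. coli with a donor plasmid and plated in duplicate on chloramphenicol/ampicillin LB agar (control) or chloramphenicol/ampicillin/kanamycin with 0.1 mM IPTG. Recombination efficiency is the averaged, control-corrected counts per million of recombinant-junction barcodes. Reported values are log10(CPM+1).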
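Note: IS621 recombinase and bridge RNA in Escherichia coli cells.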

Sequence	recombinant barcode read abundance (log10)
GTGTCGCCTTGGGTTCTAACCTGTTGCCT (site GTGTCGCCTAC)	0.224
TAGCTGACTTGGGTTCTAACCTGTTGCCT (site TAGCCGACTAG)	0.624
AGGTAGACTTGGGTTCTAACCTGTTGCCA (site AGGAAGACTTG)	0.0263
GCGGGGTCTTGGGTTCTAACCTGTTGCCT (site TCGGGGTCTAG)	0.231
TGTTCAGCTTGGGTTCTAACCTGTTGCCT (site CACAGGCCTCT)	0.0146
CTAACCTCTTGGGTTCTAACCTGTTGCTC (site CTAACCTCTTA)	0.0437
AGGTGTGCTTGGGTTCTAACCTGTTGCCT (site AGGTGTGCTAG)	1.19
CTAACTACTTGGGTTCTAACCTGTTGCCT (site CTAACTACTAG)	0.26
TAGAACTCTTGGGTTCTAACCTGTTGCCT (site TAGAACTCTGG)	0.156
TGTCTAGCTTGGGTTCTAACCTGTTGCCT (site TGCCTAGCTAG)	0.0303
TGCCGCTCTTGGGTTCTAACCTGTTGCCT (site TGGCGCTCTAG)	0.277
GATCGATCTTGGGTTCTAACCTGTTGCGT (site GATCGATCTAC)	1.46
CGGTTTCCTTGGGTTCTAACCTGTTGCCT (site CGGTTTCCTAG)	0.848
CACTTTGCTTGGGTTCTAACCTGTTGCCT (site CACTTTGCTAG)	0.207
ATAAAAGCTTGGGTTCTAACCTGTTGCCT (site ATAAAAGCTAG)	1.5
CGGTTTCCTTGGGTTCTAACCTGTTGCCT (site CTATTTCCTAG)	0.0218
CGGCGTACTTGGGTTCTAACCTGTTGCCT (site CGACGTACTAG)	0.14
TGAAGTCCTTGGGTTCTAACCTGTTGCGG (site CGACGTCCTCC)	0.0219
ACTTAGTCTTGGGTTCTAACCTGTTGCTA (site ACATAGTCTCA)	0.178
CCTAAGCCTTGGGTTCTAACCTGTTGCGT (site CCTAATCCTAC)	0.161
GATCCATCTTGGGTTCTAACCTGTTGCCT (site GATCCATCTAG)	0.561
CACTAGACTTGGGTTCTAACCTGTTGCCG (site GTGACTGCTAC)	0.242

Sequence	recombinant barcode read abundance (log10)
CCACGAACTTGGGTTCTAACCTGTTGCTT (site CCACGAACTAA)	0.0915
CACTGAGCTTGGGTTCTAACCTGTTGCCT (site TACTGAGCTAG)	0.229
CGCCTAACTTGGGTTCTAACCTGTTGCTT (site CGCCCTACTAA)	0.0705
TAGTGGCCTTGGGTTCTAACCTGTTGCTA (site CCTGACTCTAT)	0
GAGGGAGCTTGGGTTCTAACCTGTTGCAT (site GAGAGAGCTAT)	1.33
TGGCCCTCTTGGGTTCTAACCTGTTGCTA (site TGGCCCTCTTA)	2.03
TAGTGATCTTGGGTTCTAACCTGTTGCCT (site TAATGATCTAG)	0
GGCATTCCTTGGGTTCTAACCTGTTGCCT (site GGCATTCCTAG)	0.0435
CACAGATCTTGGGTTCTAACCTGTTGCTT (site CAGAGATCTAA)	0.122
ATTGGTCCTTGGGTTCTAACCTGTTGCAT (site ATTGCTCCTAG)	0.364
CCTACAGCTTGGGTTCTAACCTGTTGCCT (site CCTACAGCTAG)	0.532
AGGTCCTCTTGGGTTCTAACCTGTTGCGT (site AGGTCCTCTAA)	0.295
AAACGACCTTGGGTTCTAACCTGTTGCCT (site AAACGACCTAG)	1.59
ATATCTTCTTGGGTTCTAACCTGTTGCCT (site ATTTCTTCTAG)	0.578
CATTCTGCTTGGGTTCTAACCTGTTGCCT (site CAATCTGCTAG)	0.136
TCCGTACCTTGGGTTCTAACCTGTTGCCG (site TCCGTCCCTCA)	0.0904
AAACGACCTTGGGTTCTAACCTGTTGCCT (site GAACGACCTAG)	0.0625
CCTTTCACTTGGGTTCTAACCTGTTGCCT (site CCTATCCCTAG)	0.029
GCTAGTCCTTGGGTTCTAACCTGTTGCGT (site GCTAGTCCTAC)	2.14
TCTTGGACTTGGGTTCTAACCTGTTGCTG (site TCTTGGACTTA)	0.0733
AGCGGTCCTTGGGTTCTAACCTGTTGCCT (site AGCGGTCCTAG)	1.89
GCGAACACTTGGGTTCTAACCTGTTGCTT (site GCGAACACTAA)	1.9

Sequence	recombinant barcode read abundance (log10)
ACTAGGACTTGGGTTCTAACCTGTTGCGC (site ACTAGGACTGC)	2.3
CCGTTATCTTGGGTTCTAACCTGTTGCCT (site CCGATATCTAG)	0.0227
CAAAGATCTTGGGTTCTAACCTGTTGCTT (site CACAGATCTAA)	0.046
GCTTGAGCTTGGGTTCTAACCTGTTGCCG (site CCTTGAGCTCA)	0.0954
CTGCACCCTTGGGTTCTAACCTGTTGCCT (site CTGCACCCTAG)	1.57
ATCGGACCTTGGGTTCTAACCTGTTGCCT (site ATCGGATCTAG)	0.107
TTCTATCCTTGGGTTCTAACCTGTTGCCT (site TTCTATCCTAG)	0.486
TAGCTGACTTGGGTTCTAACCTGTTGCCT (site TAGCGGACTAG)	0.194
TATGTAGCTTGGGTTCTAACCTGTTGCCC (site TATGTAGCTCG)	0.0813
CCGTAACCTTGGGTTCTAACCTGTTGCCT (site CCGTAACCTAG)	1.57
TAGTGATCTTGGGTTCTAACCTGTTGCCT (site TATTGATCTAG)	0.0361
GCCTACCCTTGGGTTCTAACCTGTTGCGG (site GCCGACCCTCG)	0.0988
ACGAGTCCTTGGGTTCTAACCTGTTGCGT (site ACGAGTCCTAG)	0.202
GTCCCTCCTTGGGTTCTAACCTGTTGCGT (site GTCCCTCCTAT)	1.34
GCAAGGTCTTGGGTTCTAACCTGTTGCAT (site GCAAGGTCTAT)	2.5
CGTTTCCCTTGGGTTCTAACCTGTTGCAG (site CGTTTCCCTCT)	0.427
GAGTCTACTTGGGTTCTAACCTGTTGCCG (site GAGTCTACTCT)	0.0936
GGCATCCCTTGGGTTCTAACCTGTTGCTA (site GGCATCCCTTA)	0.654
GGTCCTACTTGGGTTCTAACCTGTTGCCT (site GATCCTACTAG)	0.241
GCTTCTTCTTGGGTTCTAACCTGTTGCCT (site GCTTCTTCTAG)	0.0876
ATCGGAGCTTGGGTTCTAACCTGTTGCCT (site ATCGGATCTAG)	0.181
TTGACGACTTGGGTTCTAACCTGTTGCCG (site CACCGAGCTTA)	0.149

Sequence	recombinant barcode read abundance (log10)
TAGTAGTCTTGGGTTCTAACCTGTTGCTT (site TAGTAGTCTAC)	0.635
TGTCAAACTTGGGTTCTAACCTGTTGCCT (site TGTCAAGCTAG)	0.145
GAAATGGCTTGGGTTCTAACCTGTTGCCT (site GAAATGGCTAG)	0.309
GTGGGCACTTGGGTTCTAACCTGTTGCCT (site GTGGGCACTAG)	0.225
AGCTGATCTTGGGTTCTAACCTGTTGCCT (site TGCTGATCTAG)	0.015
CCAACACCTTGGGTTCTAACCTGTTGCCT (site CCAAGTCCTAG)	0.0965
CCAACACCTTGGGTTCTAACCTGTTGCCT (site CCAACACCTAG)	0.465
GGATCCACTTGGGTTCTAACCTGTTGCCT (site GGATCCACTAG)	0.399
CAGGCGCCTTGGGTTCTAACCTGTTGCCT (site CAGGCGACTAG)	0.335
GCTTTGCCTTGGGTTCTAACCTGTTGCCT (site ACTTTCCCTAG)	0.0475
GCCAACCCTTGGGTTCTAACCTGTTGCGT (site GCCAACCCTAG)	0.149
GTGGTATCTTGGGTTCTAACCTGTTGCCT (site GTGGTATCTAG)	1.68
TAACCTGCTTGGGTTCTAACCTGTTGCCT (site TAACCTCCTAG)	0.0336
CGAATCTCTTGGGTTCTAACCTGTTGCCT (site CGAATCACTAG)	0.0112
TGTATCGCTTGGGTTCTAACCTGTTGCCT (site TGTCCCGCTAG)	0.149
CCGTGCCCTTGGGTTCTAACCTGTTGCCT (site CCGTGCCCTAG)	0.676
TTAGACCCTTGGGTTCTAACCTGTTGCAG (site TTAGACCCTCT)	3.46
GCACACTCTTGGGTTCTAACCTGTTGCCT (site GCACACTCTAG)	2.43
ACGCTATCTTGGGTTCTAACCTGTTGCTT (site ACGCTATCTAA)	0.13
CTACACCCTTGGGTTCTAACCTGTTGCTT (site CTACACCCTAA)	1.39
